Patent publication US20250230193A1, “CYCLIC COMPOUND HAVING SELECTIVE KRAS INHIBITORY EFFECT ON HRAS AND NRAS” (CHUGAI SEIYAKU KABUSHIKI KAISHA, priority 2022, published 2025)
Where a SMILES comes first, the peptide text is derived from it. Bridges are numbered along the chain shown (N, C = ends). [ ]: non-standard residue; d: D form. The star is where a group is joined. hPhe(3-Cl-4-CF3) = N[C@@H](CCc1ccc(C(F)(F)F)c(Cl)c1)C(=O)O; NPrPhe(4-CF3) = CCCN[C@@H](Cc1ccc(C(F)(F)F)cc1)C(=O)O; NMeGly(cPent) = CN[C@H](C(=O)O)C1CCCC1; cisHyp = O=C(O)[C@@H]1C[C@H](O)CN1; NMeD = CN[C@@H](CC(=O)O)C(=O)O; NMeL = CN[C@@H](CC(C)C)C(=O)O; Morpholide = C1CN(*)CCO1; Ac5c = NC1(C(=O)O)CCCC1; Sar = CNCC(=O)O

Experiments:
[1] = target: GDP-bound HRAS wild-type protein (Homo sapiens, UniProt P01112); assay: Binding to HRAS by surface plasmon resonance (SPR), Single Cycle Kinetics; conditions: SPR
Chain of GDP-bound HRAS wild-type protein (P01112 whole entry): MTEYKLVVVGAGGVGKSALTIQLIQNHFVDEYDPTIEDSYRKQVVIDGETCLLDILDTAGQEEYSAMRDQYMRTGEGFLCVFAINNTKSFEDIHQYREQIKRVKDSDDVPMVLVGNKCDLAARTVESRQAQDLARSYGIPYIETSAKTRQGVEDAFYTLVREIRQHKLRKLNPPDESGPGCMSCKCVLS

[2] = target: GDP-bound NRAS wild-type protein (Homo sapiens, UniProt P01111); assay: Binding to NRAS by surface plasmon resonance (SPR), Single Cycle Kinetics; conditions: SPR
Chain of GDP-bound NRAS wild-type protein (P01111 whole entry): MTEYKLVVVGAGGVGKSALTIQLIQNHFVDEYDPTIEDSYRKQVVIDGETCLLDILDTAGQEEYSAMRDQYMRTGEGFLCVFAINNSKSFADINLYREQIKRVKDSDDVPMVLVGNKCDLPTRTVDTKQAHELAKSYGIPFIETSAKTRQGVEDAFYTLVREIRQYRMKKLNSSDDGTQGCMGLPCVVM

[3] = GDP-bound HRAS wild-type vs GDP-bound KRAS wild-type
[4] = GDP-bound NRAS wild-type vs GDP-bound KRAS wild-type
[5] = KD ratio, GDP-bound HRAS wild-type vs GDP-bound KRAS wild-type
[6] = KD ratio, GDP-bound NRAS wild-type vs GDP-bound KRAS wild-type

With `CCO[C@@H]1C[C@H]2C(=O)NC3(CCC3)C(=O)N(C)[C@@H](C3CCCC3)C(=O)N(C)[C@H](C(=O)N(C)C)CC(=O)N(C)[C@H]3CCCCCc4ccc(cc4)C[C@@H](C(=O)N(C)CC(=O)N[C@@H](CCc4cc(F)c(C(F)(F)F)c(F)c4)C(=O)N2C1)N1CC/C=C\C[C@@H](C1=O)N(C)C(=O)CN(C)C(=O)[C@H]([C@@H](C)CC)NC3=O` [PP2261] the “HRAS/KRAS (ratio of KD value with respect to HRAS to KD value with respect to KRAS)” value [1, 3] was “A (a compound having 10 or more and less than 20 is denoted as A)” and the “NRAS/KRAS (ratio of KD value with respect to NRAS to KD value with respect to KRAS)” value [2, 4] was “A (a compound having 10 or more and less than 20 is denoted as A)”.
For `CCCN1C(=O)[C@H](C2CCCC2)N(C)C(=O)C2(CCC2)NC(=O)[C@@H]2C[C@@H](OCC)CN2C(=O)[C@H](CCc2cc(F)c(C(F)(F)F)c(F)c2)NC(=O)CN(C)C(=O)[C@H](Cc2ccc(C(F)(F)F)cc2)N2CCCC[C@@H](C2=O)N(C)C(=O)CN(C)C(=O)[C@H]([C@@H](C)CC)NC(=O)[C@H](CC)N(C)C(=O)C[C@H]1C(=O)N(C)C` [PP0644], the “HRAS/KRAS (ratio of KD value with respect to GDP-bound HRAS wild-type protein to KD value with respect to KRAS)” value ([1]; KD ratio HRAS/KRAS) was “B (a compound having 3 or more and less than 10 is denoted as B)” and the “NRAS/KRAS (ratio of KD value with respect to GDP-bound NRAS wild-type protein to KD value with respect to KRAS)” value ([2]; KD ratio NRAS/KRAS) was “C (A compound having a KD ratio of 0.1 or more and less than 3 is denoted as C)”.
`CCC[C@H]1C(=O)N[C@@H]([C@@H](C)CC)C(=O)N2CCC[C@H]2C(=O)N(C)[C@H]2C/C=C\CCN(C2=O)[C@@H](Cc2ccc(C(F)(F)F)cc2)C(=O)N(C)CC(=O)N[C@@H](CCc2ccc(C(F)(F)F)c(OC)c2)C(=O)N2C[C@H](OCC)C[C@H]2C(=O)N(C)C2(CCC2)C(=O)N(C)[C@@H](C2CCCC2)C(=O)N(C)[C@H](C(=O)N(C)C)CC(=O)N1C` [PP2320, (1S,4S,10S,13S,17S,20S,26S,28R,32S,38S,42Z)-20-cyclopentyl-28-ethoxy-32-[2-[3-methoxy-4-(trifluoromethyl)phenyl]ethyl]-N,N,2,14,18,21,24,36-octamethyl-10-[(1S)-1-methylpropyl]-3,9,12,15,19,22,25,31,34,37,45-undecaoxo-13-propyl-38-[[4-(trifluoromethyl)phenyl]methyl]spiro[2,8,11,14,18,21,24,30,33,36,39-undecazatetracyclo[37.5.1.0^4,8.0^26,30]pentatetracont-42-ene-23,1′-cyclobutane]-17-carboxamide] was tested, and the “HRAS/KRAS (ratio of KD value with respect to HRAS to KD value with respect to KRAS)” value [1, 3] was “A (a compound having 10 or more and less than 20 is denoted as A)” and the “NRAS/KRAS (ratio of KD value with respect to NRAS to KD value with respect to KRAS)” value [2, 4] was “A (a compound having 10 or more and less than 20 is denoted as A)”.
For `CCO[C@@H]1C[C@H]2C(=O)NC3(CCCC3)C(=O)N(C)[C@@H](C3CCCC3)C(=O)N(C)[C@H](C(=O)N(C)C)CC(=O)N(C)[C@@H](CC(C)C)C(=O)N[C@@H]([C@@H](C)CC)C(=O)N(C)CC(=O)N(C)[C@H]3CC(C)=C(C)CN(C3=O)[C@@H](Cc3ccc(C(F)(F)F)cc3)C(=O)N(C)CC(=O)N[C@@H](CCc3cc(F)c(C(F)(F)F)c(F)c3)C(=O)N2C1` [PP1045], the “HRAS/KRAS (ratio of KD value with respect to HRAS to KD value with respect to KRAS)” value [1, 5] was “C (A compound having a KD ratio of 0.1 or more and less than 3 is denoted as C)” and the “NRAS/KRAS (ratio of KD value with respect to NRAS to KD value with respect to KRAS)” value [2, 6] was “C (A compound having a KD ratio of 0.1 or more and less than 3 is denoted as C)”.
For `CCO[C@@H]1C[C@H]2C(=O)NC3(CC(C)(C)C3)C(=O)N(C)[C@@H](C3CCCC3)C(=O)N(C)[C@H](C(=O)N(C)CC)CC(=O)N(C)[C@@H](CC)C(=O)N[C@@H]([C@@H](C)CC)C(=O)N(C)CC(=O)N(C)[C@H]3C/C=C\CCN(C3=O)[C@@H](Cc3ccc(C(F)(F)F)cc3)C(=O)N(C)CC(=O)N[C@@H](CCc3ccc(C(F)(F)F)c(OC)c3)C(=O)N2C1` [PP1653], the “HRAS/KRAS (ratio of KD value for HRAS to KD value for KRAS)” value [1, 5] was “A (a compound having 10 or more and less than 20 is denoted as A)” and the “NRAS/KRAS (ratio of KD value for NRAS to KD value for KRAS)” value [2, 6] was “A (a compound having 10 or more and less than 20 is denoted as A)”.
In the case of `CCO[C@@H]1C[C@H]2C(=O)NC3(CC(C)(C)C3)C(=O)N(C)[C@@H](C(CC)CC)C(=O)N(C)[C@H](C(=O)N(C)C)CC(=O)N(C)[C@@H](CC3CCC3)C(=O)N[C@@H]([C@@H](C)CC)C(=O)N(C)CC(=O)N(C)[C@H]3C/C=C\CCN(C3=O)[C@@H](Cc3ccc(C)cc3)C(=O)N(C)CC(=O)N[C@@H](CCc3ccc(Cl)c(Cl)c3)C(=O)N2C1` [PP2120], the “HRAS/KRAS (ratio of KD value with respect to HRAS to KD value with respect to KRAS)” value [1, 3] is reported as “A (a compound having 10 or more and less than 20 is denoted as A)” and the “NRAS/KRAS (ratio of KD value with respect to NRAS to KD value with respect to KRAS)” value [2, 4] is reported as “AA (a compound having 20 or more is denoted as AA)”.
With `CCCN1C(=O)CN(C)C(=O)CN(C)C(=O)[C@H]([C@@H](C)CC)NC(=O)[C@H](CC(C)C)N(C)C(=O)C[C@@H](C(=O)N2CCOCC2)N(C)C(=O)[C@H](C2CCCC2)N(C)C(=O)C2(CCCC2)NC(=O)[C@@H]2C[C@H](OCC)CN2C(=O)[C@H](CCc2ccc(C(F)(F)F)c(Cl)c2)NC(=O)CN(C)C(=O)[C@@H]1Cc1ccc(C(F)(F)F)cc1` [PP0243] ([NMeL]I[Sar][Sar][NPrPhe(4-CF3)][Sar][hPhe(3-Cl-4-CF3)][cisHyp](Et)[Ac5c][NMeGly(cPent)][NMeD]-Morpholide; lactam N-11) the “HRAS/KRAS (ratio of KD for GDP-bound HRAS wild-type to KD for KRAS)” value ([1]; KD ratio HRAS/KRAS) was “C (A compound having a KD ratio of 0.1 or more and less than 3 is denoted as C)” and the “NRAS/KRAS (ratio of KD for GDP-bound NRAS wild-type to KD for KRAS)” value ([2]; KD ratio NRAS/KRAS) was “B (a compound having 3 or more and less than 10 is denoted as B)”.
